According to patent publication US20230391785A1, “NITROGEN-CONTAINING HETEROCYCLIC COMPOUND, METHOD FOR PREPARING SAME AND USE OF SAME” (280 Bio, Inc., priority 2021, published 2023):
Read-outs that look alike come from different tables or passages of the source.

Legend:
Format in all cases: cell-based
[1] = system: AsPC-1 pancreatic cancer cell line (KRAS G12D mutation); assay: Proliferation inhibition measured by CTG (CellTiter Glo), AsPC-1; details: Homo sapiens, ASPC1
Source text: (§1) NCI-H358 is a human non-small cell lung cancer cell line with KRAS G12C mutation; PANC-1 and AsPC-1 are pancreatic cancer cell lines with KRAS G12D mutation; AGS is a gastric cancer cell line with KRAS G12D mutation; A427 is a lung cancer cell line with KRAS G12D mutation; THP-1 is a leukemia cell line with NRAS G12D mutation; Hs 578T is a breast cancer cell line with HRAS G12D mutation; SW480 is a colon cancer cell lines with KRAS G12V mutation; A375 is a wild type malignant melanoma cell line. The proliferation inhibitory effect of the compounds on various mutations was evaluated by determining the proliferation inhibitory activity of the compounds on these cell lines.
(§2) The assay was conducted on either 384-well plates or 96-well plates. The procedures are as follows:
(§3) The cell suspensions were added to 384- or 96-well plates (384-well plate: 40 μL; 96-well plate: […]) except for peripheral wells. The plates were incubated in a carbon dioxide incubator overnight. Prepared compounds (10 concentration gradients by serial 3-fold dilution) were added to the wells. The cell plates were incubated in a carbon dioxide incubator for 120 hours. CellTiter Glo reagent (384 well plate: 25 μL; 96 well plate: 100 μL) was added to the 384- or 96-well plates. The plates were shaken for 10 minutes away from light, and incubated for 10 minutes. The plates were read by EnVision system. Inhibition curves were plotted using XLFit and IC50 values were calculated. “IC50>10 μM” is denoted by “*”, “10 μM≥IC50>1 μM” is denoted by “**”, “1 μM≥IC50>100 nM” is denoted by “***”, and “IC50≤100 nM” is denoted by “****”.

[2] = system: NCI-H358 cells (KRAS G12C mutation); assay: Proliferation inhibition measured by CTG (CellTiter Glo), NCI-H358; details: Homo sapiens
Source text: as §1, §2, §3

[3] = system: A375 wild type malignant melanoma cell line; assay: Proliferation inhibition measured by CTG (CellTiter Glo), A375; details: Homo sapiens, A-375
Source text: as §1, §2, §3

[4] = system: A427 lung cancer cell line (KRAS G12D mutation); assay: Proliferation inhibition measured by CTG (CellTiter Glo), A427; details: Homo sapiens, A-427
Source text: as §1, §2, §3

[5] = system: Hs 578T breast cancer cell line (HRAS G12D mutation); assay: Proliferation inhibition measured by CTG (CellTiter Glo), Hs 578T; details: Homo sapiens
Source text: as §1, §2, §3

NCI-H647 cells (G13D) = assay: Proliferation inhibition measured by CTG (CellTiter Glo), NCI-H647; details: Homo sapiens, Table 2, 120 hours incubation
A549 cells (G12S) = assay: Proliferation inhibition measured by CTG (CellTiter Glo), A549; details: Homo sapiens, Table 2, 120 hours incubation
[6] = system: SW480 colon cancer cell line (KRAS G12V mutation); assay: Proliferation inhibition measured by CTG (CellTiter Glo), SW480; details: Homo sapiens, Table 2, 120 hours incubation, read-out: IC50 SW480 (G12V)
Source text: as §1, §2, §3

[7] = system: PANC-1 pancreatic cancer cell line (KRAS G12D mutation); assay: Proliferation inhibition measured by CTG (CellTiter Glo), PANC-1; details: Homo sapiens, Table 2, 120 hours incubation
Source text: as §1, §2
The cell suspensions were added to 384- or 96-well plates (384-well plate: 40 μL; 96-well plate: […]) except for peripheral wells. The plates were incubated in a carbon dioxide incubator overnight. Prepared compounds (10 concentration gradients by serial 3-fold dilution) were added to the wells. The cell plates were incubated in a carbon dioxide incubator for 120 hours. CellTiter Glo reagent (384 well plate: 25 μL; 96 well plate: 100 μL) was added to the 384- or 96-well plates. […] The plates were read by EnVision system. Inhibition curves were plotted using XLFit and IC50 values were calculated. […]

[8] = system: THP-1 leukemia cell line (NRAS G12D mutation); assay: Proliferation inhibition measured by CTG (CellTiter Glo), THP-1; details: Homo sapiens
Source text: as §1, §2, §3

[9] = system: AGS gastric cancer cell line (KRAS G12D mutation); assay: Proliferation inhibition measured by CTG (CellTiter Glo), AGS
Source text: as §1, §2, §3

RPMI 8226 cells (G12A) = assay: Proliferation inhibition measured by CTG (CellTiter Glo), RPMI 8226; details: Homo sapiens, Table 2, 120 hours incubation
[10] = Table 1, CTG, 120 hours incubation, class symbol
[11] = Table 1, CTG, 120 hours incubation, class symbol, read-out: IC50 (H358)
[12] = Table 1, CTG, 120 hours incubation, class symbol, read-out: IC50 (A375)
[13] = Table 1, number in parentheses, unit not given in Table 1 (legend and Table 2 use μM)
[14] = Table 1, CTG, 120 hours incubation, class symbol, read-out: IC50 (AGS)

CN1CCC[C@H]1COc1nc(N2CCn3cncc3C2)c2ccc(-c3cccc4cccc(Cl)c34)cc2n1 [Compound 1]
IC50 [1, 10]: 0.1 to 1 µM
IC50 [2, 11]: 0.1 to 1 µM
IC50 [3, 12]: 0.1 to 1 µM
IC50 [4, 10]: 0.1 to 1 µM

CN1CCC[C@H]1COc1nc2c(c(N3CCn4cncc4C3)n1)CCN(c1cccc3cccc(Cl)c13)C2 [Compound 2]
IC50 [5, 10]: 0.1 to 1 µM
IC50 [5, 13]: 0.237 µM
IC50 (NCI-H647 cells (G13D)): 115 nM
IC50 (A549 cells (G12S)): 253 nM
IC50 [1, 13]: 0.139 µM
IC50 [1, 10]: 0.1 to 1 µM
IC50 [2, 11]: ≤ 0.1 µM
IC50 ([2]; Table 1, number in parentheses, no unit printed in Table 1 (Table 2 gives the same values of compound 2 in μM), read-out: IC50 (H358)): 0.063 µM
IC50 ([2]; Table 2, CTG, 120 hours incubation, read-out: IC50 H358 (G12C)): 0.063 µM
IC50 [6]: 98 nM
IC50 [7]: 193 nM
IC50 [8, 10]: ≤ 0.1 µM
IC50 [8, 13]: 0.067 µM
IC50 ([3]; Table 1, number in parentheses, unit not given in Table 1 (Table 2 gives the same value in μM), read-out: IC50 (A375)): 0.167 µM
IC50 [3, 12]: 0.1 to 1 µM
IC50 ([3]; Table 2, CTG, 120 hours incubation, read-out: IC50 A375 (wide type)): 0.167 µM
IC50 [4, 13]: 0.07 µM
IC50 [4, 10]: ≤ 0.1 µM
IC50 ([9]; Table 1, number in parentheses, unit not given in Table 1 (Table 2 gives the same value in μM), read-out: IC50 (AGS)): 0.092 µM
IC50 [9, 14]: ≤ 0.1 µM
IC50 ([9]; Table 2, CTG, 120 hours incubation, read-out: IC50 AGS (G12D)): 0.092 µM
IC50 (RPMI 8226 cells (G12A)): 128 nM

CN1CCC[C@@H]1COc1nc2c(c(N3CCn4cncc4C3)n1)CO[C@H](c1cccc3cccc(Cl)c13)C2 [Compound 4]
IC50 [1, 10]: 1 to 10 µM
IC50 [2, 11]: 1 to 10 µM
IC50 [3, 12]: 0.1 to 1 µM
IC50 [4, 10]: 0.1 to 1 µM

CN1CCC[C@H]1COc1nc2c(c(N3CCn4c(cnc4CO)C3)n1)CCN(c1cccc3cccc(Cl)c13)C2 [Compound 6]
IC50 [1, 10]: 0.1 to 1 µM
IC50 [2, 11]: 0.1 to 1 µM
IC50 [3, 12]: 0.1 to 1 µM
IC50 [4, 10]: 0.1 to 1 µM

CN1CCC[C@H]1COc1nc2c(c(N3CCn4c(cnc4N)C3)n1)CCN(c1cccc3cccc(Cl)c13)C2 [Compound 7]
IC50 [1, 10]: 1 to 10 µM
IC50 [2, 11]: 0.1 to 1 µM
IC50 [3, 12]: 0.1 to 1 µM
IC50 [4, 10]: 0.1 to 1 µM

CN1CCC[C@H]1COc1nc2c(c(N3CCn4c(cnc4C#N)C3)n1)CCN(c1cccc3cccc(Cl)c13)C2 [Compound 8]
IC50 [1, 10]: 1 to 10 µM
IC50 [2, 11]: 1 to 10 µM
IC50 [3, 12]: 0.1 to 1 µM
IC50 [4, 10]: 0.1 to 1 µM

CN1CCC[C@H]1COc1nc2c(c(N3CCn4cnc(C#N)c4C3)n1)CCN(c1cccc3cccc(Cl)c13)C2 [Compound 9]
IC50 [1, 10]: ≤ 0.1 µM
IC50 [2, 11]: ≤ 0.1 µM
IC50 [3, 12]: 0.1 to 1 µM
IC50 [4, 10]: ≤ 0.1 µM
IC50 [9, 14]: ≤ 0.1 µM

CN1CCC[C@H]1COc1nc2c(c(N3CCn4nncc4C3)n1)CCN(c1cccc3cccc(Cl)c13)C2 [Compound 10]
IC50 [1, 10]: 0.1 to 1 µM
IC50 [2, 11]: 0.1 to 1 µM
IC50 [3, 12]: 0.1 to 1 µM
IC50 [4, 10]: 0.1 to 1 µM

CC1CN(c2nc(OC[C@@H]3CCCN3C)nc3c2CCN(c2cccc4cccc(Cl)c24)C3)Cc2cncn21 (stereo partly drawn) [Compound 11]
IC50 [1, 10]: 0.1 to 1 µM
IC50 [2, 11]: 0.1 to 1 µM
IC50 [3, 12]: 0.1 to 1 µM
IC50 [4, 10]: 0.1 to 1 µM

CN(C)CCOc1nc2c(c(N3CCn4cncc4C3)n1)CCN(c1cccc3cccc(Cl)c13)C2 [Compound 16]
IC50 [1, 10]: ≤ 0.1 µM
IC50 [2, 11]: 0.1 to 1 µM
IC50 [3, 12]: 0.1 to 1 µM
IC50 [4, 10]: ≤ 0.1 µM

Cc1cccc2cccc(N3CCc4c(nc(OC[C@@H]5CCCN5C)nc4N4CCn5cncc5C4)C3)c12 [Compound 17]
IC50 [1, 10]: 0.1 to 1 µM
IC50 [2, 11]: 0.1 to 1 µM
IC50 [3, 12]: 0.1 to 1 µM
IC50 [4, 10]: 0.1 to 1 µM

CN1CCO[C@@H](COc2nc3c(c(N4CCn5cncc5C4)n2)CCN(c2cccc4cccc(Cl)c24)C3)C1 [Compound 32]
IC50 [5, 10]: 1 to 10 µM
IC50 [1, 10]: 1 to 10 µM
IC50 [2, 11]: 0.1 to 1 µM
IC50 [8, 10]: 1 to 10 µM
IC50 [3, 12]: 1 to 10 µM
IC50 [9, 14]: 1 to 10 µM

CN1CCC[C@H]1COc1nc2c(c(N3CCn4cnc(Br)c4C3)n1)CCN(c1cccc3cccc(Cl)c13)C2 [Compound 33]
IC50 [5, 10]: 0.1 to 1 µM
IC50 [1, 10]: 0.1 to 1 µM
IC50 [2, 11]: ≤ 0.1 µM
IC50 [8, 10]: ≤ 0.1 µM
IC50 [3, 12]: 0.1 to 1 µM
IC50 [9, 14]: ≤ 0.1 µM

CN1CCC[C@H]1COc1nc2c(c(N3CCc4oncc4C3)n1)CCN(c1cccc3cccc(Cl)c13)C2 [Compound 34]
IC50 [5, 10]: 1 to 10 µM
IC50 [1, 10]: 0.1 to 1 µM
IC50 [2, 11]: 0.1 to 1 µM
IC50 [8, 10]: 0.1 to 1 µM
IC50 [3, 12]: 1 to 10 µM
IC50 [9, 14]: 0.1 to 1 µM

CN1CCC2(CC1)CC(Oc1nc3c(c(N4CCn5cncc5C4)n1)CCN(c1cccc4cccc(Cl)c14)C3)C2 [Compound 35]
IC50 [5, 10]: 1 to 10 µM
IC50 [1, 10]: 1 to 10 µM
IC50 [2, 11]: 0.1 to 1 µM
IC50 [8, 10]: 1 to 10 µM
IC50 [3, 12]: 1 to 10 µM
IC50 [9, 14]: 1 to 10 µM
